The values below come from US20250032476A1, “ALPHA-2A ADRENERGIC RECEPTOR MODULATORS AND USES THEREOF” (The Regents of the University of California, priority 2021, published 2025).

Data set [1] is described as follows: Metabolic stability in male rat liver microsomes. As to conditions: 1 hour. Format: in vitro ADME.
Description: Metabolic stability studies. Metabolic stability of the test compounds was assessed using male pooled rat liver microsomes (Sprague Dawley, Sigma Aldrich) as previously described (93, 94). The reactions were carried out in 2 mL polyethylene tubes on a rotator carousel (Stuart™ SB3) in an incubator at 37° C. […] Transformation reactions were initiated by the addition of 50 μL of cofactor solution (NADPH, Carl Roth, final concentration 1 mM). […] Precipitated protein was removed by centrifugation (1 min, 16,000 rcf) and the supernatants were analysed by HPLC/MS on a Thermo Scientific Dionex Ultimate 3000 HPLC system equipped with a Zorbax Eclipse XDB-C8 column (4.6×150 mm, 5 μm), a DAD detector (210 nm, 230 nm, 254 nm, 310 nm), and a BRUKER amaZon SL mass spectrometer with ESI source. The following binary eluent system (methanol in water+0.1% (v/v) formic acid) was employed: 10% for 1 min, 10% to 100% in 20 min, 100% for 5 min, 100% to 10% in 2 min, 10% for 2 min, flow 0.4 mL/min. […] Control experiments were conducted in the absence of cofactor solution to determine non-specific binding to matrix. The integral (AUC) of the extracted ion chromatograms (EIC) was used to analyze the concentration of the remaining substrates. […]
The target in data set [2] is T1, human α2AAR (Homo sapiens (Human), UniProt P08913). Put plainly: β-arrestin-2 recruitment, BRET biosensor assay in HEK293T cells. As to conditions: HEK-293T.
T1 sequence (P08913 whole entry): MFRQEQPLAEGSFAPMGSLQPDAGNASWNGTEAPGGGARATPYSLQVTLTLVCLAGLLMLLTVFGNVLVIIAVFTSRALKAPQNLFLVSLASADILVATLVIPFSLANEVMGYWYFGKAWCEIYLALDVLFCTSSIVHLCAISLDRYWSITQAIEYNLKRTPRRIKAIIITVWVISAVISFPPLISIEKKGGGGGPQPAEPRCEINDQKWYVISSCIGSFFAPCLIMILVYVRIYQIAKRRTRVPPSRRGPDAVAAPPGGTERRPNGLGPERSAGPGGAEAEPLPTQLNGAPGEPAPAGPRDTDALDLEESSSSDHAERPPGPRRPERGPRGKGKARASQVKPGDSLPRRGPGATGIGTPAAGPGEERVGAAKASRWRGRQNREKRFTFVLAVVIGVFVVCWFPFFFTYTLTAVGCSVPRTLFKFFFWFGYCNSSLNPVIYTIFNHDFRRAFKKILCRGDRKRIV
The target in data set [3] is ALPHA-2A ADRENERGIC RECEPTOR (Homo sapiens (Human), UniProt P08913). Put plainly: Gi recruitment (G protein). Format: cell-based. The conditions noted are these: Gi recruitment.
ALPHA-2A ADRENERGIC RECEPTOR, sequence (P08913 whole entry): as above
Data set [4] is described as follows: analgesia in vivo. The conditions noted are these: result in words, Table 6.
Data set [5] has as its target T1, human α2AAR. Description: DiscoverX HitHunter cAMP G-protein activation assay.
Description: DiscoverX HitHunter cAMP G-protein activation assay. […] Freezer stock cAMP Hunter cell lines were expanded, then seeded in a total volume of 20 uL into white walled, 384-well microplates and incubated at 37° C. prior to testing. For agonist determination, cells were incubated with compound samples in the presence of EC80 forskolin to induce response. Media was aspirated from cells and replaced with 15 uL 2:1 HBSS/10 mM Hepes: cAMP XS+Ab reagent. Intermediate dilution of sample stocks was performed to generate 4× sample in assay buffer containing 4× EC80 forskolin. […] Finally assay vehicle concentration was 1%. After sample incubation assay signal was generated through incubation with 20 uL cAMP XS+ED/CL lysis cocktail for one hour followed by incubation with 20 uL cAMP XS+EA reagent for three hours at room temperature. Microplates were read following signal generation with a PerkinElmer Envision Instrument for chemiluminescent signal detection. Compound activity was analyzed using CBIS data analysis suite. For Gi agonist mode, percentage activity is calculated using the following formula: % Activity=100%×(1−(mean RLU of test sample−mean RLU of MAX control)/(mean RLU of vehicle control−mean RLU of MAX control)). […] Each measurement was done in duplicate.
DiscoverX HitHunter cAMP G-protein activation assay. […] Freezer stock cAMP Hunter cell lines were expanded, then seeded in a total volume of 20 μL into white walled, 384-well microplates and incubated at 37° C. prior to testing. For agonist determination, cells were incubated with compound samples in the presence of EC50 forskolin to induce response. Media was aspirated from cells and replaced with 15 μL 2:1 HBSS/10 mM Hepes: cAMP XS+Ab reagent. Intermediate dilution of sample stocks was performed to generate 4× sample in assay buffer containing 4× EC80 forskolin. […] Finally assay vehicle concentration was 1%. After sample incubation assay signal was generated through incubation with 20 μL cAMP XS+ED/CL lysis cocktail for one hour followed by incubation with 20 μL cAMP XS+EA reagent for three hours at room temperature. Microplates were read following signal generation with a PerkinElmer Envision Instrument for chemiluminescent signal detection. Compound activity was analyzed using CBIS data analysis suite. For Gi agonist mode, percentage activity is calculated using the following formula: % Activity=100%×(1−(mean RLU of test sample−mean RLU of MAX control)/(mean RLU of vehicle control−mean RLU of MAX control)). […] Each measurement was done in duplicate.
Data set [6] addresses T1, human α2AAR. Put plainly: α2AAR internalization assay with rGFP-CAAX and rGFP-FYVE biosensors. Format: cell-based. The conditions noted are these: α2AAR-RlucII/rGFP-CAAX biosensor.
Description: Human α2AAR internalization was evaluated by measuring the disappearance of hα2AAR-RlucII from the plasma membrane labeled with rGFP-CAAX and its relocalization in endosome labeled with rGFP-FYVE (39).
For concentration-response curves, BRET signal was measured after 30 min incubation. Plates were read on a Spark microplate reader (Tecan; Mannedorf, Switzerland) using the BRET2 manufacturer settings.
In data set [7] the test system is SNI mice. Description: Spared-nerve injury (SNI) model of neuropathic pain, von Frey mechanical thresholds. In kind it is in vivo. The method, then:
Spared-nerve injury (SNI) model of neuropathic pain. Under isoflurane anesthesia, two of the three branches of the sciatic nerve were ligated and transected distally, leaving the sural nerve intact. Behavior was tested 7 to 14 days after injury and in situ hybridization was performed one week post-injury.

Data set [8] deals with α2AAR F427^7.39 mutant (Homo sapiens (Human), UniProt P08913, F427A). Description: Gi activation (BRET) at α2AAR F427^7.39 mutant. In kind it is cell-based. The method, then: Investigating the sensitivity of selected ligands to the receptor mutants α2AAR-D128^3.32A, α2AAR-D128^3.32T, α2AAR-D128^3.32L, α2AAR-S215^5.42A, α2AAR-Y409^6.55A, α2AAR-Y409^6.55T, α2AAR-Y409^6.55F, α2AAR-F427^7.39F, α2AAR-Y431^7.43A, and α2AAR-Y431^7.43F was determined by monitored G protein stimulation as described above transfecting the appropriate receptor together with Gαi1-RLucII and Gβ1/Gγ1-GFP10. […] Three to ten experiments were done in duplicate.
α2AAR F427^7.39 mutant, sequence (P08913 whole entry F427A): as the sequence (P08913 whole entry) above, with F427A counted along it
The sensitivity of selected ligands to the receptor mutants α2AAR-D128^3.32A, α2AAR-D128^3.32T, α2AAR-D128^3.32L, α2AAR-S215^5.42A, α2AAR-Y409^6.55A, α2AAR-Y409^6.55T, α2AAR-Y409^6.55F, α2AAR-F427^7.39F, α2AAR-Y431^7.43A, and α2AAR-Y431^7.43F was monitored by G protein activation as described above transfecting the appropriate receptor together with Gαi1-RLucII and Gβ1/Gγ2-GFP10. […] Similarly, the effect of the α2AAR-D128^3.32A, α2AAR-S215^5.42A, α2AAR-Y409^6.55A, α2AAR-Y409^6.55F, α2AAR-F427^7.39F, α2AAR-Y431^7.43A, and α2AAR-Y431^7.43F mutations on arrestin recruitment was evaluated as described above transfecting the appropriate receptor together with CAAX-rGFP, GRK2 and β-arrestin-2-RLucII. Data was analyzed as ligand induced changes in BRET compared to vehicle (deltaBRET). Three to seven experiments were done in duplicate.

Regarding `Fc1cccc2c(Nc3ccncc3)cccc12` [Compound 7075, N-(5-fluoronaphthalen-1-yl)pyridin-4-amine], the “Metabolic stability, compound remaining” value in data set [1] was “remain largely unmodified after 1 hour”. The Emax in data set [2] (read-out: β-Arr-2 Emax @ 0.1 mM) is 10%; in data set [3] (Table 6, read-out: Emax (%)), 89%; in data set [5] (read-out: Gi/o Emax) it was 96%. For the same molecule, in data set [2] (read-out: β-arrestin-2 Emax @ 0.1 mM), the Emax at 100 µM was found to be 10 ± 7%. Further, the “functional classification (agonist / weak agonist)” value in data set [3] (Table 6, result in words) is “agonist”. For the same molecule, the EC50 in data set [3] (Table 6, read-out: EC50) was found to be 4.1 nM; in data set [5], 18 nM. The analgesic in vivo result in data set [4] is “analgesic in vivo”. The “Disappearance of α2AAR from the plasma membrane (internalization)” value in data set [6] is given as “no effect”. The “Effect of atipamezole on the agonist's effect in SNI mice” value in data set [7] (atipamezole 2 mg/kg, 15 minutes prior) is recorded as “reversed by atipamezole”. Further, in data set [7] (systemic injection), the “Mechanical thresholds / anti-allodynic effect in SNI mice” value is “exhibited anti-allodynic effects”. Further, the “Reversal of mechanical hypersensitivity in SNI mice” value in data set [7] (systemic injection) is “completely reversed the mechanical hypersensitivity”. Also, the “Gi activity at F427^7.39 substitution” value in data set [8] is recorded as “eliminated”.
